Results published in patent US5244602A, “Photochromic naphthopyrans” (PPG Industries, Inc., priority 1990, dated 1993).

Legend:
Assay type in all cases: physicochemical
[1] = Coloring and bleaching behaviour; conditions: for bleaching: room temperature
[2] = Absorption maximum of naphthopyran imbibed into polymerizate; conditions: imbibed in poly[diethylene glycol bis(allyl carbonate)]; UV 365 nm lamp
Text: (§1) The naphthopyran compounds of Examples 1-11 were imbibed into separate polymerizates of poly[diethylene glycol bis(allyl carbonate)]. On exposure to ultraviolet light from a 365 nm lamp, the imbibed polymer samples elicited a photochromic response which faded on removal of the UV light source.

[3] = Fade rate (T 1/2) of naphthopyran imbibed into polymerizate after UV activation; conditions: At Room Temperature; imbibed in poly[diethylene glycol bis(allyl carbonate)]; UV 365 nm lamp
Text: as §1
^1. At Room Temperature

Structure (SMILES)	color change on exposure to near ultraviolet [1]	bleaching [1]	Absorption λ Max [2] [NM]	Fade Rate T 1/2 [3] [min]
C1=CC(c2ccccc2)(c2ccccc2)Oc2c1ccc1ccccc21 [2,2-diphenyl-2H-naphtho[1,2-b] pyrin]	colors on exposure to near ultraviolet light at room temperature	does not bleach in a reasonable period of time	–	–
C1=CC(c2ccccc2)(c2ccccc2)Oc2ccc3ccccc3c21 [3,3-diphenyl-3H-naphtho[2,1-b]pyran]	change color on exposure to the near ultraviolet	bleaches too rapidly for use in an ophthalmic lens	–	–
CC(=O)Oc1cc2ccccc2c2c1OC(c1ccccc1)(c1ccccc1)C=C2 [Example 1, 5-acetoxy-3,3-diphenyl-3H-naphtho[2,1-b]pyran]	–	–	455	1.35
C1=CC(c2ccccc2)(c2ccccc2)Oc2c(Oc3ccccn3)cc3ccccc3c21 [Example 2, 5(2-pyridyloxy)-3,3-diphenyl-3H naphtho[2,1-b]pyran]	–	–	440	1.57
COc1ccc(C2(c3ccccc3)C=Cc3c(c(OC(C)=O)cc4ccccc34)O2)cc1 (stereo not drawn) [Example 3, 5-acetoxy-3-phenyl-3-p-methoxy phenyl-3H-naphtho[2,1-b]pyran]	–	–	483	1.05
COc1ccc(C2(c3ccccc3)C=Cc3c(c(OC(=O)c4ccccc4)cc4ccccc34)O2)cc1 (stereo not drawn) [Example 4, 5-benzoyloxy-3-phenyl-3-p-methoxy phenyl-3H-naphtho[2,1-b]pyran]	–	–	483	3.5
O=C(Oc1cc2ccccc2c2c1OC(c1ccccc1)(c1ccccc1)C=C2)c1ccccc1 [Example 5, 5-benzoyloxy-3,3-diphenyl-3H-naphtho[2,1-b]pyran]	–	–	447	2.3
CNC(=O)Oc1cc2ccccc2c2c1OC(c1ccccc1)(c1ccccc1)C=C2 [Example 6, 5-methylcarbamyloxy-3,3-diphenyl-3H-naphtho[2,1-b]pyran]	–	–	446	1.67
CC(=O)COc1cc2ccccc2c2c1OC(c1ccccc1)(c1ccccc1)C=C2 [Example 8, 5-(2-acetonyloxy)-3,3-diphenyl-3H-naphtho[2,1-b]pyran]	–	–	434	1.6
CC(=O)Oc1cc2ccccc2c2c1OC(c1ccc(C)cc1)(c1ccc(C)cc1)C=C2 [Example 9, 5-acetoxy-3,3-di(p-methylphenyl)-3H-naphtho[2,1-b]pyran]	–	–	470	2.23
O=C(CCl)Oc1cc2ccccc2c2c1OC(c1ccccc1)(c1ccccc1)C=C2 [Example 10, 5-chloroacetoxy-3,3-diphenyl-3H-naphtho[2,1-b]pyran]	–	–	458	1.6
Cc1ccc(C2(c3ccc(C)cc3)C=Cc3c(c(OC(=O)CCl)cc4ccccc34)O2)cc1 [Example 11, 5-chloroacetoxy-3,3-p-methylphenyl-3H-naphtho[2,1-b]pyran]	–	–	476	1.75
